Key:
Experiment in all cases: relative viability (nuclei count vs DMSO), 5 days (fraction); higher = more cells survive
[1] = test system: HCC-44
Method in brief: (§1)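 Relative viability divides the nuclei count in treated wells by that in vehicle wells. Lung cancer cell lines were seeded in 1536-well plates, dosed by pin tool the next day, and fixed and stained after 5 days in one step with final 0.05% Triton X-100, 1% formaldehyde and 1 ug/ml Hoechst. Dosing was a single drug or a fixed anchor-drug dose plus five library-drug doses (not always all listed) in √10 steps, and values are medians of duplicate plates imaged at 4×.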

[2] = test system: LCLC-97TM1
Method in brief: as §1

[3] = test system: NCI-H2085
Method in brief: as §1

[4] = test system: EPLC-272H
Method in brief: as §1

[5] = test system: NCI-H1666
Method in brief: as §1

[6] = test system: NCI-H647
Method in brief: as §1

[7] = test system: HCC-827
Method in brief: as §1

[8] = test system: COR-L 105
Method in brief: as §1

[9] = test system: NCI-H650
Method in brief: as §1

[10] = test system: NCI-H2170
Method in brief: as §1

[11] = test system: NCI-H1437
Method in brief: as §1

[12] = test system: BEN
Method in brief: as §1

[13] = test system: NCI-H2087
Method in brief: as §1

[14] = test system: 201T
Method in brief: as §1

[15] = test system: LU99A
Method in brief: as §1

[16] = test system: LOU-NH91
Method in brief: as §1

[17] = test system: SW 1573
Method in brief: as §1

[18] = test system: H3255
Method in brief: as §1

[19] = test system: NCI-H1975
Method in brief: as §1

[20] = test system: PC-3 [JPC-3]
Method in brief: as §1

[21] = test system: EKVX
Method in brief: as §1

CCN(CC)CCCCNc1ncc2cc(-c3cc(OC)cc(OC)c3)c(NC(=O)NC(C)(C)C)nc2n1 + Cc1nc(NC(=O)N2CCC[C@H]2C(N)=O)sc1-c1ccnc(C(C)(C)C(F)(F)F)c1 [Alpelisib] (partner 2 µM)
relative viability ([1]; first compound 0.01 µM): 0.93 | relative viability ([1]; first compound 0.03162 µM): 0.9 | relative viability ([1]; first compound 0.1 µM): 1.12 | relative viability ([1]; first compound 0.3162 µM): 0.87 | relative viability ([1]; first compound 1 µM): 0.772 | relative viability ([2]; first compound 0.03162 µM): 0.265 | relative viability ([2]; first compound 0.1 µM): 0.221 | relative viability ([2]; first compound 0.3162 µM): 0.216 | relative viability ([2]; first compound 1 µM): 0.244 | relative viability ([3]; first compound 0.01 µM): 1.04 | relative viability ([3]; first compound 0.03162 µM): 0.999 | relative viability ([3]; first compound 0.1 µM): 1.02 | relative viability ([3]; first compound 0.3162 µM): 0.983 | relative viability ([3]; first compound 1 µM): 0.907 | relative viability ([4]; first compound 0.01 µM): 0.918 | relative viability ([4]; first compound 0.1 µM): 1.01 | relative viability ([4]; first compound 0.3162 µM): 1.07 | relative viability ([4]; first compound 1 µM): 0.883 | relative viability ([5]; first compound 0.01 µM): 0.963 | relative viability ([5]; first compound 0.03162 µM): 0.889 | relative viability ([5]; first compound 0.1 µM): 1.02 | relative viability ([5]; first compound 0.3162 µM): 0.995 | relative viability ([5]; first compound 1 µM): 0.74 | relative viability ([6]; first compound 0.01 µM): 1.41 | relative viability ([6]; first compound 0.03162 µM): 1.3 | relative viability ([6]; first compound 0.1 µM): 1.31 | relative viability ([6]; first compound 0.3162 µM): 1.13 | relative viability ([6]; first compound 1 µM): 0.465 | relative viability ([7]; first compound 0.01 µM): 0.968 | relative viability ([7]; first compound 0.03162 µM): 0.967 | relative viability ([7]; first compound 0.1 µM): 1.02 | relative viability ([7]; first compound 0.3162 µM): 1.16 | relative viability ([7]; first compound 1 µM): 1.02 | relative viability ([8]; first compound 0.01 µM): 1 | relative viability ([8]; first compound 0.03162 µM): 0.981 | relative viability ([8]; first compound 0.1 µM): 1.06 | relative viability ([8]; first compound 0.3162 µM): 1.01 | relative viability ([8]; first compound 1 µM): 0.917 | relative viability ([9]; first compound 0.01 µM): 1.04 | relative viability ([9]; first compound 0.03162 µM): 1.04 | relative viability ([9]; first compound 0.1 µM): 1.21 | relative viability ([9]; first compound 0.3162 µM): 1.09 | relative viability ([9]; first compound 1 µM): 0.865 | relative viability ([10]; first compound 0.01 µM): 0.92 | relative viability ([10]; first compound 0.03162 µM): 0.822 | relative viability ([10]; first compound 0.1 µM): 0.831 | relative viability ([10]; first compound 0.3162 µM): 0.894 | relative viability ([10]; first compound 1 µM): 0.807 | relative viability ([11]; first compound 0.01 µM): 1.23 | relative viability ([11]; first compound 0.03162 µM): 0.944 | relative viability ([11]; first compound 0.1 µM): 1 | relative viability ([11]; first compound 0.3162 µM): 1.03 | relative viability ([11]; first compound 1 µM): 0.947 | relative viability ([12]; first compound 0.01 µM): 1.17 | relative viability ([12]; first compound 0.03162 µM): 0.891 | relative viability ([12]; first compound 0.1 µM): 0.882 | relative viability ([12]; first compound 0.3162 µM): 1.12 | relative viability ([12]; first compound 1 µM): 0.801 | relative viability ([13]; first compound 0.01 µM): 1.12 | relative viability ([13]; first compound 0.03162 µM): 1.03 | relative viability ([13]; first compound 0.1 µM): 1.53 | relative viability ([13]; first compound 0.3162 µM): 1.23 | relative viability ([13]; first compound 1 µM): 1.15 | relative viability ([14]; first compound 0.01 µM): 1.05 | relative viability ([14]; first compound 0.03162 µM): 1.01 | relative viability ([14]; first compound 0.1 µM): 1.09 | relative viability ([14]; first compound 0.3162 µM): 1.1 | relative viability ([14]; first compound 1 µM): 0.97 | relative viability ([15]; first compound 0.01 µM): 0.5 | relative viability ([15]; first compound 0.03162 µM): 0.523 | relative viability ([15]; first compound 0.1 µM): 0.55 | relative viability ([15]; first compound 0.3162 µM): 0.666 | relative viability ([15]; first compound 1 µM): 0.575 | relative viability ([16]; first compound 0.01 µM): 0.672 | relative viability ([16]; first compound 0.03162 µM): 0.673 | relative viability ([16]; first compound 0.1 µM): 0.741 | relative viability ([16]; first compound 0.3162 µM): 0.734 | relative viability ([16]; first compound 1 µM): 0.696 | relative viability ([17]; first compound 0.01 µM): 0.727 | relative viability ([17]; first compound 0.03162 µM): 0.874 | relative viability ([17]; first compound 0.1 µM): 0.929 | relative viability ([17]; first compound 0.3162 µM): 0.796 | relative viability ([17]; first compound 1 µM): 0.782 | relative viability ([18]; first compound 0.01 µM): 0.788 | relative viability ([18]; first compound 0.03162 µM): 0.71 | relative viability ([18]; first compound 0.1 µM): 0.728 | relative viability ([18]; first compound 0.3162 µM): 0.713 | relative viability ([18]; first compound 1 µM): 0.689 | relative viability ([19]; first compound 0.01 µM): 0.699 | relative viability ([19]; first compound 0.03162 µM): 0.691 | relative viability ([19]; first compound 0.1 µM): 0.707 | relative viability ([19]; first compound 0.3162 µM): 0.787 | relative viability ([19]; first compound 1 µM): 0.451 | relative viability ([20]; first compound 0.01 µM): 1.03 | relative viability ([20]; first compound 0.03162 µM): 1.02 | relative viability ([20]; first compound 0.1 µM): 0.99 | relative viability ([20]; first compound 0.3162 µM): 1.05 | relative viability ([20]; first compound 1 µM): 1.07 | relative viability ([21]; first compound 0.01 µM): 0.818 | relative viability ([21]; first compound 0.03162 µM): 0.898 | relative viability ([21]; first compound 0.1 µM): 0.875 | relative viability ([21]; first compound 0.3162 µM): 1.04 | relative viability ([21]; first compound 1 µM): 0.893

Reference: the supplement of paper PMC10307832
